In ChEMBL document CHEMBL3351747, “Structure-based design of β1i or β5i specific inhibitors of human immunoproteasomes” (J Med Chem, 2014):

Tests used:
[1] = Inhibition of 20s proteasome subunit beta-5c in human Raji cells using BODIPY-NC005 by fluorescent densitometry; assay type: cell-based
[2] = target: T1, Proteasome subunit beta type-8 (Homo sapiens, UniProt P28062); assay: Inhibition of proteasome subunit beta-5i in human Raji cells using BODIPY-NC005 by fluorescent densitometry; assay type: cell-based
T1 sequence (P28062 whole entry): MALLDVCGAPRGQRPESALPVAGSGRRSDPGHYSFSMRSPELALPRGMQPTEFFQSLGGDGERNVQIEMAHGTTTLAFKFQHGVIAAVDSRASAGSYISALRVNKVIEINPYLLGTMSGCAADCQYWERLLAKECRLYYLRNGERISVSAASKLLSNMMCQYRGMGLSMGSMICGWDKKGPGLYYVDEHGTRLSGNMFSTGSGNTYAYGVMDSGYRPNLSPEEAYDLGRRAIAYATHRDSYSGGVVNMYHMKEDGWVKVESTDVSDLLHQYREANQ

[3] = Inhibition of 20s proteasome subunit beta-1c in human Raji cells using BODIPY- epoxomicin by fluorescent densitometry; assay type: cell-based
[4] = test system: Raji; assay: Ratio of IC50 for 20s proteasome subunit beta-1c to IC50 for proteasome subunit beta-1i in human Raji cells; assay type: cell-based
[5] = target: T2, Proteasome subunit beta type-9 (Homo sapiens, UniProt P28065); assay: Inhibition of proteasome subunit beta-1i in human Raji cells using BODIPY- epoxomicin by fluorescent densitometry; assay type: cell-based
T2 sequence (P28065 whole entry): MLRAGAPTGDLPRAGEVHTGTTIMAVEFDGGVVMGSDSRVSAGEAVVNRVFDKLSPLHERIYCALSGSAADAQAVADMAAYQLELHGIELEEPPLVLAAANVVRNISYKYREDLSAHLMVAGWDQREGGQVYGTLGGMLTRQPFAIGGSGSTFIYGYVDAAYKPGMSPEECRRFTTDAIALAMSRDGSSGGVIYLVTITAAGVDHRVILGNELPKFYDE

[6] = target: T2, Proteasome subunit beta type-9; assay: Inhibition of proteasome subunit beta-1i in human RPMI8226 cells using BODIPY-NC001 by fluorescent densitometry; assay type: cell-based, RPMI-8226
[7] = target: T1, Proteasome subunit beta type-8; assay: Inhibition of proteasome subunit beta-5i in human RPMI8226 cells using BODIPY-NC005 by fluorescent densitometry; assay type: cell-based, RPMI-8226
[8] = Inhibition of 20s proteasome subunit beta-2c in human RPMI8226 cells using BODIPY-epoxomicin by fluorescent densitometry; assay type: cell-based; settings: rpmi-8226
[9] = Inhibition of 20s proteasome subunit beta-2c in human Raji cells using BODIPY- epoxomicin by fluorescent densitometry; assay type: cell-based
[10] = Inhibition of 20s proteasome subunit beta-1c in human RPMI8226 cells using BODIPY-NC001 by fluorescent densitometry; assay type: cell-based; settings: rpmi-8226
[11] = target: T3, Proteasome subunit beta type-10 (Homo sapiens, UniProt P40306); assay: Inhibition of proteasome subunit beta-2i in human RPMI8226 cells using BODIPY-epoxomicin by fluorescent densitometry; assay type: cell-based, RPMI-8226
T3 sequence (P40306 whole entry): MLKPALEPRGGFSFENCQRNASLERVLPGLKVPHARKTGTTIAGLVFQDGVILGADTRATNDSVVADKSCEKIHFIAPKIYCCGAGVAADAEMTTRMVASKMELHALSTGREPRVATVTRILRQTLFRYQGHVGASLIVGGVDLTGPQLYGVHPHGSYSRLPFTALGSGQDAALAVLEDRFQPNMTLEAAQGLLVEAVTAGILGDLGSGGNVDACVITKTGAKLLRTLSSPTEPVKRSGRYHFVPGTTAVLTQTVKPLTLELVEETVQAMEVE

[12] = Inhibition of 20s proteasome subunit beta-5c in human RPMI8226 cells using BODIPY-NC005 by fluorescent densitometry; assay type: cell-based; settings: rpmi-8226
[13] = target: T3, Proteasome subunit beta type-10; assay: Inhibition of proteasome subunit beta-2i in human Raji cells using BODIPY- epoxomicin by fluorescent densitometry; assay type: cell-based

Compound | IC50 [1] | IC50 [2] | IC50 [3] | Ratio IC50 [4] | IC50 [5] | also measured
COc1ccc(C[C@H](NC(=O)[C@@H](C)NC(=O)CN2CCOCC2)C(=O)N[C@@H](Cc2ccccc2)C(=O)[C@@]2(C)CO2)cc1 | 116 nM |  |  |  |  | 
COc1ccc(C[C@H](NC(=O)[C@H](C)NC(=O)C2=C(C)c3ccccc3C2)C(=O)N[C@@H](Cc2ccccc2)C(=O)[C@@]2(C)CO2)cc1 | 6 nM | 5 nM |  |  |  | 
CCCC[C@H](NC(=O)[C@@H]1CSCN1C(=O)[C@H](C)NC(=O)CN=[N+]=[N-])C(=O)N[C@@H](CC(C)C)C(=O)[C@@]1(C)CO1 |  |  | 240 nM | 6.5 | 68 nM | 
COc1ccc(C[C@H](NC(=O)[C@@H](C)NC(=O)CN2CCOCC2)C(=O)N[C@@H](CC2CCCCC2)C(=O)[C@@]2(C)CO2)cc1 |  | 36 nM |  |  | > 10000 nM | IC50 [6]: 7300 nM; IC50 [7]: 100 nM
C[C@@H](NC(=O)CN1CCOCC1)C(=O)N[C@@H](Cc1c[nH]c2ccccc12)C(=O)N[C@@H](Cc1ccccc1)C(=O)[C@@]1(C)CO1 | 104 nM | 13 nM |  |  |  | 
COc1ccc(C[C@H](NC(=O)[C@H](C)NC(=O)CN2CCOCC2)C(=O)N[C@H](/C=C/S(C)(=O)=O)Cc2ccccc2)cc1 | 14000 nM | 392 nM |  |  |  | 
CCCC[C@H](NC(=O)[C@@H]1CCCCN1C(=O)[C@H](C)NC(=O)CN=[N+]=[N-])C(=O)N[C@@H](CC(C)C)C(=O)[C@@]1(C)CO1 |  |  | 250 nM | 3.7 | 67 nM | 
COc1ccc(C[C@H](NC(=O)[C@@H](C)NC(=O)C2=C(C)c3ccccc3C2)C(=O)N[C@@H](Cc2ccccc2)C(=O)[C@@]2(C)CO2)cc1 | 157 nM | 3 nM |  |  |  | 
CC1=C(C(=O)N[C@H](C)C(=O)N[C@@H](Cc2c[nH]c3ccccc23)C(=O)N[C@H](/C=C/S(C)(=O)=O)CC2CCCCC2)Cc2ccccc21 | 62000 nM | 632 nM |  |  |  | 
CC1=C(C(=O)N[C@H](C)C(=O)N[C@@H](Cc2c[nH]c3ccccc23)C(=O)N[C@@H](Cc2ccc(-c3ccccc3)cc2)C(=O)[C@@]2(C)CO2)Cc2ccccc21 | 79 nM | 5 nM |  |  |  | 
COc1ccc(C[C@H](NC(=O)[C@H](C)NC(=O)C2=C(C)c3ccccc3C2)C(=O)N[C@@H](Cc2ccc(-c3ccccc3)cc2)C(=O)[C@@]2(C)CO2)cc1 | 12.6 nM | 1.4 nM |  |  |  | 
CC1=C(C(=O)N[C@H](C)C(=O)N[C@@H](Cc2c[nH]c3ccccc23)C(=O)N[C@H](/C=C/S(C)(=O)=O)Cc2ccccc2)Cc2ccccc21 | 25000 nM | 53 nM | > 100000 nM |  | > 100000 nM | IC50 [8]: > 100000 nM; IC50 [9]: > 100000 nM; IC50 [10]: > 100000 nM; IC50 [11]: > 100000 nM; IC50 [6]: > 100000 nM; IC50 [12]: > 100000 nM; IC50 [7]: 390 nM; IC50 [13]: > 100000 nM
COc1ccc(C[C@H](NC(=O)[C@H](C)NC(=O)CN2CCOCC2)C(=O)N[C@@H](CC2CCCCC2)C(=O)[C@@]2(C)CO2)cc1 |  | 6.6 nM |  |  | 300 nM | IC50 [6]: 370 nM; IC50 [7]: 44 nM
CCCC[C@H](NC(=O)[C@@H]1C[C@H](F)CN1C(=O)[C@H](C)NC(=O)CN=[N+]=[N-])C(=O)N[C@@H](CC(C)C)C(=O)[C@@]1(C)CO1 |  |  | 510 nM | 2.3 | 220 nM | 
CCCC[C@H](NC(=O)[C@@H]1C[C@@H](O)CN1C(=O)[C@H](C)NC(=O)CN=[N+]=[N-])C(=O)N[C@@H](CC(C)C)C(=O)[C@@]1(C)CO1 |  |  | 860 nM | 5 | 170 nM | 
CCCC[C@H](NC(=O)[C@@H]1CCCN1C(=O)[C@H](C)NC(=O)CN=[N+]=[N-])C(=O)N[C@@H](Cc1ccccc1)C(=O)[C@@]1(C)CO1 |  |  | 580 nM | 9 | 66 nM | IC50 [13]: > 100000 nM
COc1ccc(C[C@H](NC(=O)[C@H](C)NC(=O)CN2CCOCC2)C(=O)N[C@@H](Cc2ccccc2)C(=O)[C@@]2(C)CO2)cc1 | 54 nM |  | > 10000 nM |  |  | IC50 [8]: 1100 nM; IC50 [9]: 1100 nM; IC50 [10]: > 5000 nM; IC50 [12]: 180 nM

Compound | IC50 [1] | IC50 [2] | IC50 [3] | Ratio IC50 [4] | IC50 [5] | also measured
C[C@@H](NC(=O)CN1CCOCC1)C(=O)N[C@@H](Cc1c[nH]c2ccccc12)C(=O)N[C@@H](Cc1ccc(-c2ccccc2)cc1)C(=O)[C@@]1(C)CO1 | 14 nM | 2.1 nM |  |  |  | 
COc1ccc(C[C@H](NC(=O)[C@H](C)NC(=O)CN2CCOCC2)C(=O)N[C@@H](CC23CC4CC(CC(C4)C2)C3)C(=O)[C@@]2(C)CO2)cc1 | > 50000 nM | > 50000 nM |  |  |  | 
CCCC[C@H](NC(=O)[C@@H]1CCN1C(=O)[C@H](C)NC(=O)CN=[N+]=[N-])C(=O)N[C@@H](CC(C)C)C(=O)[C@@]1(C)CO1 |  |  | 54 nM | 0.6 | 96 nM | 
CCCC[C@H](NC(=O)[C@@H]1CCCN1C(=O)[C@H](C)NC(=O)CN=[N+]=[N-])C(=O)N[C@@H](CC1CCCCC1)C(=O)[C@@]1(C)CO1 |  |  | 3400 nM | 39 | 87 nM | IC50 [13]: > 30000 nM
C[C@@H](NC(=O)CN1CCOCC1)C(=O)N[C@@H](Cc1c[nH]c2ccccc12)C(=O)N[C@@H](CC1CCCCC1)C(=O)[C@@]1(C)CO1 | 827 nM | 32 nM | > 10000 nM |  | > 10000 nM | IC50 [8]: > 10000 nM; IC50 [9]: > 10000 nM; IC50 [10]: > 10000 nM; IC50 [11]: > 10000 nM; IC50 [6]: 6200 nM; IC50 [12]: 2900 nM; IC50 [7]: 59 nM; IC50 [13]: > 10000 nM
COc1ccc(C[C@H](NC(=O)[C@H](C)NC(=O)CN2CCOCC2)C(=O)N[C@@H](Cc2ccc(-c3ccccc3)cc2)C(=O)[C@@]2(C)CO2)cc1 | 20 nM | 2 nM |  |  |  | 
CC1=C(C(=O)N[C@H](C)C(=O)N[C@@H](Cc2c[nH]c3ccccc23)C(=O)N[C@@H](CC2CCCCC2)C(=O)[C@@]2(C)CO2)Cc2ccccc21 | 4600 nM | 8.3 nM | > 10000 nM |  | 7100 nM | IC50 [8]: > 100000 nM; IC50 [9]: > 10000 nM; IC50 [10]: > 100000 nM; IC50 [11]: > 100000 nM; IC50 [6]: 16000 nM; IC50 [12]: > 100000 nM; IC50 [7]: 230 nM; IC50 [13]: > 10000 nM
CCCC[C@H](NC(=O)[C@@H]1C[C@@H](F)CN1C(=O)[C@H](C)NC(=O)CN=[N+]=[N-])C(=O)N[C@@H](CC(C)C)C(=O)[C@@]1(C)CO1 |  |  | 66 nM | 3 | 22 nM | 
COc1ccc(C[C@H](NC(=O)[C@H](C)NC(=O)C2=C(C)c3ccccc3C2)C(=O)N[C@@H](CC2CCCCC2)C(=O)[C@@]2(C)CO2)cc1 | 14.5 nM | 3 nM |  |  |  | 
COc1ccc(C[C@H](NC(=O)[C@@H](C)NC(=O)C2=C(C)c3ccccc3C2)C(=O)N[C@@H](Cc2ccc(-c3ccccc3)cc2)C(=O)[C@@]2(C)CO2)cc1 | 43 nM | 3.3 nM |  |  |  | 
COc1ccc(C[C@H](NC(=O)[C@H](C)NC(=O)CN2CCOCC2)C(=O)N[C@@H](Cc2ccc3ccccc3c2)C(=O)[C@@]2(C)CO2)cc1 | 97 nM | 3.1 nM |  |  |  | 
CCCC[C@H](NC(=O)[C@@H]1CC(F)(F)CN1C(=O)[C@H](C)NC(=O)CN=[N+]=[N-])C(=O)N[C@@H](Cc1ccccc1)C(=O)[C@@]1(C)CO1 |  |  | 4800 nM | 114 | 42 nM | IC50 [13]: > 100000 nM
COc1ccc(C[C@H](NC(=O)[C@H](C)NC(=O)CN2CCOCC2)C(=O)N[C@H](/C=C/S(C)(=O)=O)CC2CCCCC2)cc1 | > 100000 nM | 5700 nM |  |  |  | 
CCCCCCC(=O)N[C@@H](C)C(=O)N[C@@H](CC(C)C)C(=O)[C@@]1(CO[Si](C)(C)C(C)(C)C)CO1 |  |  | 15000 nM | 144 | 104 nM | IC50 [13]: 25000 nM
CCCC[C@H](NC(=O)[C@@H]1CC(F)(F)CN1C(=O)[C@H](C)NC(=O)CN=[N+]=[N-])C(=O)N[C@@H](CC(C)C)C(=O)[C@@]1(C)CO1 |  |  | 360 nM | 10.5 | 34 nM | 
COc1ccc(C[C@H](NC(=O)[C@@H](C)NC(=O)CN2CCOCC2)C(=O)N[C@@H](Cc2ccc(-c3ccccc3)cc2)C(=O)[C@@]2(C)CO2)cc1 | 9.9 nM | 1.2 nM |  |  |  | 
COc1ccc(C[C@H](NC(=O)[C@H](C)NC(=O)CN2CCOCC2)C(=O)N[C@@H](Cc2cccc3ccccc23)C(=O)[C@@]2(C)CO2)cc1 | 1800 nM | 244 nM |  |  |  | 
